This note sets out measurements from patent publication US4758574A, “2-phenylimidazio (4,5-c) pyridines” (Eli Lilly and Company, priority 1986, dated 1988).

Structures can show the parent of a compound that is named as a salt.

This test deals with Cat Papillary Muscles. Kind of test: Positive Inotropic Activity in Isolated Cat Papillary Muscles. Type of test: cell-based. As to conditions: Felis catus, control = 100 percent, read-out: Contractility of Papillary Muscle (peak response); for activity at 100 µM: Drug Concentration 10^-4 M; for activity at 10 µM: Drug Concentration 10^-5 M. The procedure:
Positive Inotropic Activity in Isolated Cat Papillary Muscles […] A platinum hook secured one end of the muscle to an electrode mounted in the bottom of the bath, and a silk thread attached the tendon to a Statham isometric transducer. The baths contained Krebs-Henseleit solution (36° C., bubbled with 95 percent oxygen--5 percent carbon dioxide) of the following millimolar composition: NaCl, 118; KCl, 4.5; CaCl2, 2.5; KH2 PO4, 1.1; MgSO4, 1.2; NaHCO3, 25; and glucose, 11. A base-line tension of 1.5 g. was applied to each muscle. Square-wave pulses (5.0 msec. in duration, three times threshold voltage) delivered through the hook electrode and a second electrode positioned near the top of the muscle evoked 12 contractions/minute, which were recorded on a Grass polygraph. After the muscles had equilibrated for 60 minutes, the recorder gain was adjusted so that the pen deflected 10 mm. The drug was introduced in a solution of normal saline in an amount to bring the final concentration of the drug to 10^-5 or 10^-4 molar. Increases in contractility were tabulated as millimeters of pen deflection in excess of the baseline value. In each experiment the maximum contractility was measured. Test results are summarized in Table I and are expressed as percent of control (control=100 percent). Values are the average of results from 2 to 8 muscles.

On to `Clc1ccc(-c2nc3cnccc3[nH]2)cc1` [Example 49, 2-(4-chlorophenyl)imidazo[4,5-c]pyridine], for which the activity at 100 µM was 175% and the activity at 10 µM worked out at 107%.

Regarding `O=[N+]([O-])c1cccc(-c2nc3cnccc3[nH]2)c1` [Example 12, 2-(3-nitrophenyl)imidazo[4,5-c]pyridine hydrochloride], the activity at 100 µM is 105% and the activity at 10 µM worked out at 102%.

Regarding `Cc1ccc(-c2nc3cnccc3[nH]2)cc1` [Example 25, 2-(4-methylphenyl)imidazo[4,5-c]pyridine hydrochloride], the activity at 100 µM worked out at 130% and the activity at 10 µM was determined as 95%.

Consider `COc1cc(OC)c(-c2nc3cnccc3[nH]2)cc1OC` [Example 40, 2-(2,4,5-trimethoxyphenyl)imidazo[4,5-c]pyridine hydrochloride], for which the activity at 100 µM is 129% and the activity at 10 µM worked out at 108%.

Turning to `CN(C)c1ccc(-c2nc3cnccc3[nH]2)cc1` [Example 17, 2-(4-dimethylaminophenyl)imidazo[4,5-c]pyridine hydrochloride], the activity at 100 µM was 175% and the activity at 10 µM worked out at 95%.

Take `CCCCCOc1cc(OC)ccc1-c1nc2cnccc2[nH]1` [Example 35, 2-(2-n-pentoxy-4-methoxyphenyl)imidazo[4,5-c]pyridine hydrochloride]: the activity at 100 µM is 81% and the activity at 10 µM turned out to be 105%.

In the case of `COc1cc(Cl)ccc1-c1nc2cnccc2[nH]1` [Example 20, 2-(4-chloro-2-methoxyphenyl)imidazo[4,5-c]pyridine hydrochloride], the activity at 100 µM was 146% and the activity at 10 µM came out at 147%.

`CCCCOc1cc(OC)ccc1-c1nc2cnccc2[nH]1` [Example 30, 2-(2-n-butoxy-4-methoxyphenyl)imidazo[4,5-c]pyridine]: the activity at 100 µM was found to be 140% and the activity at 10 µM is 100%.

Regarding `COc1cccc(OC)c1-c1nc2cnccc2[nH]1` [Example 33, 2-(2,6-dimethoxyphenyl)imidazo[4,5-c]pyridine hydrochloride], the activity at 100 µM is 184% and the activity at 10 µM amounted to 88%.

In the case of `Fc1cccc(-c2nc3cnccc3[nH]2)c1` [Example 1, 2-(3-Fluorophenyl)imidazo[4,5-c]pyridine hydrochloride], the activity at 100 µM turned out to be 157% and the activity at 10 µM came to 112%.

As to `COc1cccc(-c2nc3cnccc3[nH]2)c1OC` [Example 11, 2-(2,3-dimethoxyphenyl)imidazo[4,5-c]pyridine hydrochloride], the activity at 100 µM was 90% and the activity at 10 µM came to 102%.

Regarding `Clc1cc(Cl)cc(-c2nc3cnccc3[nH]2)c1` [Example 3, 2-(3,5-Dichlorophenyl)imidazo[4,5-c]pyridine hydrochloride], the activity at 100 µM was 146% and the activity at 10 µM is 117%.

On to `Fc1ccccc1-c1nc2cnccc2[nH]1` [Example 6, 2-(2-Fluorophenyl)imidazo[4,5-c]pyridine hydrochloride], for which the activity at 100 µM is 152% and the activity at 10 µM stood at 108%.

Consider `Cc1ccc(-c2nc3cnccc3[nH]2)cc1C` [Example 46, 2-(3,4-dimethylphenyl)imidazo[4,5-c]pyridine hydrochloride], for which the activity at 100 µM turned out to be 225% and the activity at 10 µM amounted to 133%.

Take `CCOc1cc(SC)ccc1-c1nc2cnccc2[nH]1` [Example 42, 2-(2-ethoxy-4-methylmercaptophenyl)imidazo[4,5-c]pyridine]: the activity at 100 µM is 149% and the activity at 10 µM was found to be 122%.

As for `COc1ccc(-c2nc3cnccc3[nH]2)c(OCC[S+]([O-])c2ccccc2)c1` (stereo not drawn) [Example 53, 2-[2-(β-phenylsulfinylethoxy)-4-methoxyphenyl]imidazo[4,5-c]pyridine], the activity at 100 µM is 96% and the activity at 10 µM turned out to be 107%.

With `COc1ccc(OC)c(-c2nc3cnccc3[nH]2)c1` [Example 31, 2-(2,5-dimethoxyphenyl)imidazo[4,5-c]pyridine hydrochloride], the activity at 100 µM turned out to be 194% and the activity at 10 µM was 110%.

With `Fc1ccc(-c2nc3cnccc3[nH]2)cc1` [Example 5, 2-(4-Fluorophenyl)imidazo[4,5-c]pyridine hydrochloride], the activity at 100 µM is 163% and the activity at 10 µM came to 105%.

On to `COCCOc1cc(OC)ccc1-c1nc2cnccc2[nH]1` [Example 37, 2-[2-(β-methoxyethoxy)-4-methoxyphenyl]imidazo[4,5-c]pyridine], for which the activity at 100 µM worked out at 116% and the activity at 10 µM was found to be 109%.

For `N#Cc1ccc(-c2nc3cnccc3[nH]2)cc1` [Example 14, 2-(4-cyanophenyl)imidazo[4,5-c]pyridine hydrochloride], the activity at 100 µM is 164% and the activity at 10 µM worked out at 112%.

On to `COc1cc(-c2nc3cnccc3[nH]2)cc(OC)c1OC` [Example 10, 2-(3,4,5-trimethoxyphenyl)imidazo[4,5-c]pyridine hydrochloride], for which the activity at 100 µM came out at 150% and the activity at 10 µM turned out to be 109%.

As for `CCSc1ccc(-c2nc3cnccc3[nH]2)c(OC)c1` [Example 41, 2-(2-methoxy-4-ethylmercaptophenyl)imidazo[4,5-c]pyridine hydrochloride], the activity at 100 µM was 196% and the activity at 10 µM was found to be 136%.

In the case of `COc1ccc(-c2nc3cnccc3[nH]2)c(OCCCSC)c1` [Example 44, 2-[2-(γ-methylmercaptopropoxy)-4-methoxyphenyl]imidazo[4,5-c]pyridine], the activity at 100 µM is 129% and the activity at 10 µM turned out to be 118%.

Regarding `COc1cc(Br)ccc1-c1nc2cnccc2[nH]1` [Example 57, 2-(2-methoxy-4-bromophenyl)imidazo[4,5-c]pyridine hydrochloride], the activity at 100 µM turned out to be 175% and the activity at 10 µM was determined as 134%.

On to `CCOc1cc(OC)ccc1-c1nc2cnccc2[nH]1` [Example 28, 2-(2-ethoxy-4-methoxyphenyl)imidazo[4,5-c]pyridine], for which the activity at 100 µM came out at 130% and the activity at 10 µM came out at 108%.

In the case of `Clc1cccc(-c2nc3cnccc3[nH]2)c1` [Example 48, 2-(3-chlorophenyl)imidazo[4,5-c]pyridine], the activity at 100 µM stood at 176% and the activity at 10 µM amounted to 107%.

Turning to `CCCCOc1ccc(-c2nc3cnccc3[nH]2)cc1` [Example 19, 2-(4-n-butoxyphenyl)imidazo[4,5-c]pyridine hydrochloride], the activity at 100 µM turned out to be 288% and the activity at 10 µM amounted to 114%.

For `COc1cc(OC)c(-c2nc3cnccc3[nH]2)c(OC)c1` [Example 34, 2-(2,4,6-trimethoxyphenyl)imidazo[4,5-c]pyridine], the activity at 100 µM turned out to be 137% and the activity at 10 µM is 103%.

As for `COc1c(C)cc(-c2nc3cnccc3[nH]2)cc1C` [Example 21, 2-(3,5-dimethyl-4-methoxyphenyl)imidazo[4,5-c]pyridine hydrochloride], the activity at 100 µM is 215% and the activity at 10 µM was 127%.

Turning to `COc1cccc(-c2nc3cnccc3[nH]2)c1` [Example 16, 2-(3-methoxyphenyl)imidazo[4,5-c]pyridine hydrochloride], the activity at 100 µM was 213% and the activity at 10 µM stood at 114%.

In the case of `COc1cc(OC)cc(-c2nc3cnccc3[nH]2)c1` [Example 32, 2-(3,5-dimethoxyphenyl)imidazo[4,5-c]pyridine], the activity at 100 µM came to 179% and the activity at 10 µM was 115%.

For the compound `COc1ccc(-c2nc3cnccc3[nH]2)c(OCCSc2ccccc2)c1` [Example 38, 2-[2-(β-phenylmercaptoethoxy)-4-methoxyphenyl]imidazo[4,5-c]pyridine], the activity at 100 µM was determined as 109% and the activity at 10 µM was determined as 103%.

`COCCCOc1cc(OC)ccc1-c1nc2cnccc2[nH]1` [Example 36, 2-[2-(γ-methoxypropoxy)-4-methoxyphenyl]imidazo[4,5-c]pyridine]: the activity at 100 µM was determined as 147% and the activity at 10 µM was found to be 100%.

Take `COc1ccccc1-c1nc2cnccc2[nH]1` [Example 18, 2-(2-methoxyphenyl)imidazo[4,5-c]pyridine hydrochloride]: the activity at 100 µM is 163% and the activity at 10 µM is 115%.

With `COc1ccc(-c2nc3cnccc3[nH]2)c(OC)c1OC` [Example 22, 2-(2,3,4-trimethoxyphenyl)imidazo[4,5-c]pyridine hydrochloride], the activity at 100 µM was 221% and the activity at 10 µM is 117%.
